From the kinase profiling compilation of Christmann-Franck et al. (2016)

Tests used:
Test in all cases: radiometric filter-binding kinase assay, Kinase HotSpot
Settings in all cases: compound 0.5 µM; ATP 10 µM
VRK1 (human) = VRK1 (human) (UniProt Q99986)
DYRK2 (human) = DYRK2 (human) (UniProt Q92630)
MELK (human) = MELK (human) (UniProt Q14680)
HCK (human) = HCK (human) (UniProt P08631)
MST4 (human) = MST4 (human) (UniProt Q9P289)
EPHA5 (human) = EPHA5 (human) (UniProt P54756)
[1] = system: MKNK1 (human), Q9BUB5 [T385D; 165-205 del]
Chain of MKNK1 (human), Q9BUB5 [T385D; 165-205 del] (Q9BUB5 whole entry, looked up, stated change not applied): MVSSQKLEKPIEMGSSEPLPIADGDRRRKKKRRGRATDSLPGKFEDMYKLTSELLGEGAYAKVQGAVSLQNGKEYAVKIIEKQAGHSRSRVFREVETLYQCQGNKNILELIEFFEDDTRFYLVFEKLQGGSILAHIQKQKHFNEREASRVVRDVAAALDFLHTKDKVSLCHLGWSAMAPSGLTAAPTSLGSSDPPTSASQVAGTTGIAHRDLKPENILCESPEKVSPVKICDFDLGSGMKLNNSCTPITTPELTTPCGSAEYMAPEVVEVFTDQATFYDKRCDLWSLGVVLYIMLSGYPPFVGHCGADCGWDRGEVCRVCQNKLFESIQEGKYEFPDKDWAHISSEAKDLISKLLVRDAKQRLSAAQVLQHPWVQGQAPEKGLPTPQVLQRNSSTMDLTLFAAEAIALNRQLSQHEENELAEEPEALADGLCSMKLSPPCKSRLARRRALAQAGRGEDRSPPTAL

PRKX (human) = PRKX (human) (UniProt P51817)
Chain of PRKX (human) (P51817 whole entry, looked up): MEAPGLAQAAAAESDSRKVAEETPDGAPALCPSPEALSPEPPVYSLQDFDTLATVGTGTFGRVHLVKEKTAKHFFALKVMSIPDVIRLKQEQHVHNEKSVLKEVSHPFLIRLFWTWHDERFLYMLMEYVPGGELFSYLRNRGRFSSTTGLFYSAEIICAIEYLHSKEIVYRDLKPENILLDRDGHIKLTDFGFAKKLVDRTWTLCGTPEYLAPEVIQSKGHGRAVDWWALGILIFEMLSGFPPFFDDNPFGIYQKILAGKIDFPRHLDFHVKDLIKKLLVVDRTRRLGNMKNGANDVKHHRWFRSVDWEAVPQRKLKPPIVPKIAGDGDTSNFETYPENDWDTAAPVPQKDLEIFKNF

AKT2 (human) = AKT2 (human) (UniProt P31751)
CSNK1G2 (human) = CSNK1G2 (human) (UniProt P78368)
CHEK1 (human) = CHEK1 (human) (UniProt O14757)
Chain of CHEK1 (human) (O14757 whole entry, looked up): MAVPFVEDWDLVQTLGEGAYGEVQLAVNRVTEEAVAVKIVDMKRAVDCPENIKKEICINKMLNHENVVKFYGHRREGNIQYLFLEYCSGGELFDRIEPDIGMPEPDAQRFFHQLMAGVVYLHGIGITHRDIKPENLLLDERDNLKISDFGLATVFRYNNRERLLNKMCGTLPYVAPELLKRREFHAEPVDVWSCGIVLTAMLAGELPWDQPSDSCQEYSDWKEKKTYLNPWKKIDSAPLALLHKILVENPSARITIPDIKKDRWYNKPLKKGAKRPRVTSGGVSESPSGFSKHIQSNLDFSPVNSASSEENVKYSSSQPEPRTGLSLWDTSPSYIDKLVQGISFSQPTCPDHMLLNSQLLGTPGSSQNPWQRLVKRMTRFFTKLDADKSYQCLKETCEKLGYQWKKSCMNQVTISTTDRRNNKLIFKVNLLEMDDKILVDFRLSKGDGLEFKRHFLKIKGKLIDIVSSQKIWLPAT

STK11 (human) = STK11 (human) (UniProt Q15831)
CDK5 CDK5R1 p25 (human) = CDK5 CDK5R1 p25 (human) (UniProt Q00535+Q15078)
RPS6KA1 KD1 KD2 (human) = RPS6KA1 KD1 KD2 (human) (UniProt Q15418)
STK17A (human) = STK17A (human) (UniProt Q9UEE5)
Chain of STK17A (human) (Q9UEE5 whole entry, looked up): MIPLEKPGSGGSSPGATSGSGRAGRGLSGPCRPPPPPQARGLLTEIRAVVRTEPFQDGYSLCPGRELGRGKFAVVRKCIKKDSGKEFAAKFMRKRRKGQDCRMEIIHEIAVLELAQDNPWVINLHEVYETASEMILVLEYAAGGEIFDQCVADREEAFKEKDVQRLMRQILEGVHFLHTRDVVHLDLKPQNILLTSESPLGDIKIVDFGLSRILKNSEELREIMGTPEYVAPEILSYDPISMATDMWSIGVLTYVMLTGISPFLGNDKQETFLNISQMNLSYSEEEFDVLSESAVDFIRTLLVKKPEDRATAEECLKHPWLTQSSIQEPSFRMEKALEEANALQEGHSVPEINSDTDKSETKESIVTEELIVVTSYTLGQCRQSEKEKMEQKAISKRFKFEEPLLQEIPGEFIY

MAP3K8 (human) = MAP3K8 (human) (UniProt P41279)
RPS6KA2 KD1 KD2 (human) = RPS6KA2 KD1 KD2 (human) (UniProt Q15349)
MATK (human) = MATK (human) (UniProt P42679)
STK10 (human) = STK10 (human) (UniProt O94804)
EPHB3 (human) = EPHB3 (human) (UniProt P54753)
MAP4K4 (human) = MAP4K4 (human) (UniProt O95819)
MKNK2 (human) = MKNK2 (human) (UniProt Q9HBH9)
CDK6 CCND3 (human) = CDK6 CCND3 (human) (UniProt P30281+Q00534)
[2] = target: TYK2 JH1 catalytic (human) (UniProt P29597)
FYN (human) = FYN (human) (UniProt P06241)
HIPK3 (human) = HIPK3 (human) (UniProt Q9H422)
NEK11 (human) = NEK11 (human) (UniProt Q8NG66)
ROCK1 (human) = ROCK1 (human) (UniProt Q13464)
BMX (human) = BMX (human) (UniProt P51813)
Chain of BMX (human) (P51813 whole entry, looked up): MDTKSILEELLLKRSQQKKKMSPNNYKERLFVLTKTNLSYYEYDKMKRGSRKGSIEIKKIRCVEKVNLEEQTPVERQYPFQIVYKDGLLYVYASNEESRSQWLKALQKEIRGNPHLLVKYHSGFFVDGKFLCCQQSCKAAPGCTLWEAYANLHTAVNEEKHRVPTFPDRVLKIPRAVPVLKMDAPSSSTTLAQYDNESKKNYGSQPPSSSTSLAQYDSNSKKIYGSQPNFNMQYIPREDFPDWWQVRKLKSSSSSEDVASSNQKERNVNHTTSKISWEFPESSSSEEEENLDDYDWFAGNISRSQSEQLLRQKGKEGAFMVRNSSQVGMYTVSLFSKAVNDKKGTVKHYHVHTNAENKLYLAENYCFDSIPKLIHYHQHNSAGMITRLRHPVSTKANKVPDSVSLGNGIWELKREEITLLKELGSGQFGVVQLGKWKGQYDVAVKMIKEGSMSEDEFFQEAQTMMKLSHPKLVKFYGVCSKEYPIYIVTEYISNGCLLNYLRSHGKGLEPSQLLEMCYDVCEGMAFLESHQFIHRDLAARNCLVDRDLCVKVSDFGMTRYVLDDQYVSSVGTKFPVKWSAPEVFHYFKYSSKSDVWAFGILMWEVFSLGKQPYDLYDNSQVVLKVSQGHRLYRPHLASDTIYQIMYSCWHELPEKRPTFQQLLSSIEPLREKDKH

MET (human) = MET (human) (UniProt P08581)
MARK3 (human) = MARK3 (human) (UniProt P27448)
Chain of MARK3 (human) (P27448 whole entry, looked up): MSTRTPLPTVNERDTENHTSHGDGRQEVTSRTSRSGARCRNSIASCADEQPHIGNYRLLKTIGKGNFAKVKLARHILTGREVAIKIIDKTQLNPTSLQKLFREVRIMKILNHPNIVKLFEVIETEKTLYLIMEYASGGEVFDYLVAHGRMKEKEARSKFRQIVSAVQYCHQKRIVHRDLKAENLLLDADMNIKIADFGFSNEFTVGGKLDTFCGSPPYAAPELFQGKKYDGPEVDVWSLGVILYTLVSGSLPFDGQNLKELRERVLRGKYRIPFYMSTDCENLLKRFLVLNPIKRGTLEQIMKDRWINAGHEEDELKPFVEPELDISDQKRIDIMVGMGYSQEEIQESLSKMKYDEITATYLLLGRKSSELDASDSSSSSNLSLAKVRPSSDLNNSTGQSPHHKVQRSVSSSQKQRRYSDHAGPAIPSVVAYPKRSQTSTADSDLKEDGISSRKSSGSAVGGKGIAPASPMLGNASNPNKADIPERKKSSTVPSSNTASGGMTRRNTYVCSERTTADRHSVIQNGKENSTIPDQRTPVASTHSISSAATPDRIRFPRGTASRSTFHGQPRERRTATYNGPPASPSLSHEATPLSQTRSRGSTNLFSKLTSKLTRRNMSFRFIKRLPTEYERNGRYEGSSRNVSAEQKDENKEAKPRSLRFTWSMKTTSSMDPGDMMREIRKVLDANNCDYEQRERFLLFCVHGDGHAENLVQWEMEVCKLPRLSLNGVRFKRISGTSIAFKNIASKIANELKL

MARK4 (human) = MARK4 (human) (UniProt Q96L34)
MAPK3 (human) = MAPK3 (human) (UniProt P27361)
PRKCH (human) = PRKCH (human) (UniProt P24723)
Chain of PRKCH (human) (P24723 whole entry, looked up): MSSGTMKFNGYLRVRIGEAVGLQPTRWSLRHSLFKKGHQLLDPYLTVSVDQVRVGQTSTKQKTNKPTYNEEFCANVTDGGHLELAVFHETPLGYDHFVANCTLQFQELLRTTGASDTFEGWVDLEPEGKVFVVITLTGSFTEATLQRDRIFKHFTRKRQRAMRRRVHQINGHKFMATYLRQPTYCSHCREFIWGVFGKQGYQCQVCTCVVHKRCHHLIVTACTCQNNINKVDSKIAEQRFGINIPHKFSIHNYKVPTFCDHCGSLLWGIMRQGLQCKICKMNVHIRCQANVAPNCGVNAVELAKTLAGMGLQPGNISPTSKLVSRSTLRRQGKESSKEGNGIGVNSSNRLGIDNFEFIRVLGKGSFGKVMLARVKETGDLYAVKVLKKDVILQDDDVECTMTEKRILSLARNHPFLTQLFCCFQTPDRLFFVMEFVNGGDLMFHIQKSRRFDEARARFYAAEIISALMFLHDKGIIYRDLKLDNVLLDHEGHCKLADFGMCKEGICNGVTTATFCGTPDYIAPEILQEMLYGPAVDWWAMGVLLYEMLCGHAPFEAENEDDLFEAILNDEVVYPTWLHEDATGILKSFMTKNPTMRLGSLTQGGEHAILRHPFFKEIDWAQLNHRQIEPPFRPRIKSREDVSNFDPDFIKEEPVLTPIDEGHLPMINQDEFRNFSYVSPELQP

PNCK (human) = PNCK (human) (UniProt Q6P2M8)
PBK (human) = PBK (human) (UniProt Q96KB5)
TSSK2 (human) = TSSK2 (human) (UniProt Q96PF2)
EPHA7 (human) = EPHA7 (human) (UniProt Q15375)
NUAK2 (human) = NUAK2 (human) (UniProt Q9H093)
PRKCD (human) = PRKCD (human) (UniProt Q05655)
PKN1 (human) = PKN1 (human) (UniProt Q16512)
PIM1 (human) = PIM1 (human) (UniProt P11309)

Chain of DYRK2 (human) (Q92630 whole entry, looked up): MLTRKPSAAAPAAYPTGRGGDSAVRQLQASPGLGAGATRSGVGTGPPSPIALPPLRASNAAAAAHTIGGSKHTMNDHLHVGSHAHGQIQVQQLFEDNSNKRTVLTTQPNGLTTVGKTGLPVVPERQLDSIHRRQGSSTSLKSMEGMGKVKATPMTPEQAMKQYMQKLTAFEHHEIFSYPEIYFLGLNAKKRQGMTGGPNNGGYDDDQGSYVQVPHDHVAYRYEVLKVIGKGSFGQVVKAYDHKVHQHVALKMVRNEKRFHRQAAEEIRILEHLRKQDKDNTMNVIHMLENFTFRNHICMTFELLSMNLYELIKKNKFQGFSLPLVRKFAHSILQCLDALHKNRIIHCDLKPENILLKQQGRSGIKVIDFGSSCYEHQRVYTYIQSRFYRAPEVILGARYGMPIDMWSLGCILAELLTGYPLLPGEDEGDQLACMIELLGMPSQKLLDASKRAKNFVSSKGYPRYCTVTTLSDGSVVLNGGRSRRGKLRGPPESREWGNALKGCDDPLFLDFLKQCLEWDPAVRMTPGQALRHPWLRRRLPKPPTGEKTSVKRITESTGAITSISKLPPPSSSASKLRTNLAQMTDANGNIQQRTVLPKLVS
Chain of VRK1 (human) (Q99986 whole entry, looked up): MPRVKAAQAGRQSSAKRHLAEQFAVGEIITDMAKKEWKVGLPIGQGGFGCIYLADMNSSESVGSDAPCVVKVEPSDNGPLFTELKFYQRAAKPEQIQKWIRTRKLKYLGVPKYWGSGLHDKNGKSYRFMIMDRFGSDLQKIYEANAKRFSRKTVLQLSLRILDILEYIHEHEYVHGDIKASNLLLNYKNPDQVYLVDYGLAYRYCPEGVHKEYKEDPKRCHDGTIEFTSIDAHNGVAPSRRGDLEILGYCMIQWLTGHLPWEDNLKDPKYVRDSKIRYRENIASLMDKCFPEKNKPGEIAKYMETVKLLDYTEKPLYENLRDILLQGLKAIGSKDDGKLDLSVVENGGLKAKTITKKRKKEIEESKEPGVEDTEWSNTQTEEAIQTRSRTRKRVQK

Work on `CN(C)CCCn1cc(C2=C(c3c[nH]c4ccccc34)C(=O)NC2=O)c2ccccc21` yielded a residual activity (VRK1 (human)) of 95.5%, a residual activity (DYRK2 (human)) of 111% and a residual activity (MELK (human)) of 42%. The residual activity (HCK (human)) was 92.3%, the residual activity (MST4 (human)) was 37.2% and the residual activity (EPHA5 (human)) was 92%. The residual activity [1] was 81.2%, the residual activity (PRKX (human)) was 85.3% and the residual activity (AKT2 (human)) was 88.7%. For the same molecule, the residual activity (CSNK1G2 (human)) was 90.3%, the residual activity (CHEK1 (human)) was 39.1% and the residual activity (STK11 (human)) was 92.8%. It also gave a residual activity (CDK5 CDK5R1 p25 (human)) of 80.2%, a residual activity (RPS6KA1 KD1 KD2 (human)) of 4.67% and a residual activity (STK17A (human)) of 86.9%. It also gave a residual activity (MAP3K8 (human)) of 93.9%, a residual activity (RPS6KA2 KD1 KD2 (human)) of 1.4% and a residual activity (MATK (human)) of 100%. It also gave a residual activity (STK10 (human)) of 19.4%, a residual activity (EPHB3 (human)) of 95.2% and a residual activity (MAP4K4 (human)) of 55.9%. The residual activity (MKNK2 (human)) was 85.3%, the residual activity (CDK6 CCND3 (human)) was 73.3% and the residual activity [2] was 79.3%. It also gave a residual activity (FYN (human)) of 88.3%, a residual activity (HIPK3 (human)) of 102% and a residual activity (NEK11 (human)) of 104%. For the same molecule, the residual activity (ROCK1 (human)) was 92.3%, the residual activity (BMX (human)) was 101% and the residual activity (MET (human)) was 102%. The residual activity (MARK3 (human)) was 72%, the residual activity (MARK4 (human)) was 66.9% and the residual activity (MAPK3 (human)) was 108%. The residual activity (PRKCH (human)) was 7.67%, the residual activity (PNCK (human)) was 106% and the residual activity (PBK (human)) was 81.3%. The residual activity (TSSK2 (human)) was 97.3%, the residual activity (EPHA7 (human)) was 97% and the residual activity (NUAK2 (human)) was 66%. The residual activity (PRKCD (human)) was 4.73%.

In the case of `COc1cc2ncnc(Nc3ccc(Oc4ccccc4)cc3)c2cc1OC`, the residual activity (VRK1 (human)) is reported as 98.2%, the residual activity (PKN1 (human)) is reported as 97.3% and the residual activity (DYRK2 (human)) is reported as 104%. The residual activity (MELK (human)) was 101%, the residual activity (HCK (human)) was 13.5% and the residual activity (MST4 (human)) was 102%. It also gave a residual activity (EPHA5 (human)) of 85.3%, a residual activity [1] of 98.9% and a residual activity (PRKX (human)) of 95.2%. The residual activity (AKT2 (human)) was 99.4%, the residual activity (CSNK1G2 (human)) was 99.9% and the residual activity (CHEK1 (human)) was 97.4%. It also gave a residual activity (STK11 (human)) of 93.6%, a residual activity (CDK5 CDK5R1 p25 (human)) of 88.8% and a residual activity (RPS6KA1 KD1 KD2 (human)) of 97.6%. It also gave a residual activity (STK17A (human)) of 96.3%, a residual activity (MAP3K8 (human)) of 68.9% and a residual activity (RPS6KA2 KD1 KD2 (human)) of 98%. For the same molecule, the residual activity (MATK (human)) was 94.3%, the residual activity (STK10 (human)) was 74% and the residual activity (EPHB3 (human)) was 103%. For the same molecule, the residual activity (MAP4K4 (human)) was 90.5%, the residual activity (MKNK2 (human)) was 47.9% and the residual activity (CDK6 CCND3 (human)) was 108%. For the same molecule, the residual activity [2] was 107%, the residual activity (FYN (human)) was 26.9% and the residual activity (HIPK3 (human)) was 103%. The residual activity (NEK11 (human)) was 74.8%, the residual activity (ROCK1 (human)) was 102% and the residual activity (BMX (human)) was 76.1%. For the same molecule, the residual activity (MARK3 (human)) was 108%, the residual activity (MARK4 (human)) was 105% and the residual activity (MAPK3 (human)) was 105%. It also gave a residual activity (PRKCH (human)) of 87.3%, a residual activity (PNCK (human)) of 97.7% and a residual activity (PBK (human)) of 92.6%. For the same molecule, the residual activity (PIM1 (human)) was 102%, the residual activity (TSSK2 (human)) was 103% and the residual activity (EPHA7 (human)) was 100%. The residual activity (NUAK2 (human)) was 137% and the residual activity (PRKCD (human)) was 96.8%.
